Source: ChEMBL document CHEMBL5291721, “A preclinical secondary pharmacology resource illuminates target-adverse drug reaction associations of marketed drugs” (Nat Commun, 2023)

How the values were obtained:
Adenosine receptor A2a = Adenosine receptor A2a (Homo sapiens, UniProt P29274)
[1] = target: Gamma-aminobutyric acid receptor subunit alpha-1 (Rattus norvegicus, UniProt P62813)
[2] = target: T1, Alpha-2C adrenergic receptor (Homo sapiens, UniProt P18825); format: functional
T1 sequence (P18825 whole entry): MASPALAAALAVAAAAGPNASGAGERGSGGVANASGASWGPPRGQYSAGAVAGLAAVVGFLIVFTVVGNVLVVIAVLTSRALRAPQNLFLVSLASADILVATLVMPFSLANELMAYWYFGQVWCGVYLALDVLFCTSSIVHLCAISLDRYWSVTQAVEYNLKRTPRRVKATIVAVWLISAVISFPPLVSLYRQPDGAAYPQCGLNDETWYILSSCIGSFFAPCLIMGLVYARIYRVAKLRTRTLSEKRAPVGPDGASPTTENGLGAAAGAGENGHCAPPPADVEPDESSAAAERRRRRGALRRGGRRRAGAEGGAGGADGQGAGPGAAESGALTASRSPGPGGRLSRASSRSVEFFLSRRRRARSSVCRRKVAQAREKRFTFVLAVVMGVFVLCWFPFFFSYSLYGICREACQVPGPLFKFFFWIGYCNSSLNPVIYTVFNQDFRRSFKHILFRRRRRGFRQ

Adenosine receptor A1 = target: T2, Adenosine receptor A1 (Homo sapiens, UniProt P30542)
T2 sequence (P30542 whole entry): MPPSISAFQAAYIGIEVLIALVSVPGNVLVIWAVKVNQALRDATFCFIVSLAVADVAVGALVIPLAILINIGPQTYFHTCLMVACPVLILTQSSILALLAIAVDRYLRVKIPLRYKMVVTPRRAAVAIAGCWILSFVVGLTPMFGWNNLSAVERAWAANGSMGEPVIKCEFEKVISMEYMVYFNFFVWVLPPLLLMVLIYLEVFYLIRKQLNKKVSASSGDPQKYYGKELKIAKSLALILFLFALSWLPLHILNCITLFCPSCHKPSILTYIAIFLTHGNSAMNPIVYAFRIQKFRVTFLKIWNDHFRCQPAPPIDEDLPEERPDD

[3] = target: T3, Cholecystokinin receptor type A (Homo sapiens, UniProt P32238)
T3 sequence (P32238 whole entry): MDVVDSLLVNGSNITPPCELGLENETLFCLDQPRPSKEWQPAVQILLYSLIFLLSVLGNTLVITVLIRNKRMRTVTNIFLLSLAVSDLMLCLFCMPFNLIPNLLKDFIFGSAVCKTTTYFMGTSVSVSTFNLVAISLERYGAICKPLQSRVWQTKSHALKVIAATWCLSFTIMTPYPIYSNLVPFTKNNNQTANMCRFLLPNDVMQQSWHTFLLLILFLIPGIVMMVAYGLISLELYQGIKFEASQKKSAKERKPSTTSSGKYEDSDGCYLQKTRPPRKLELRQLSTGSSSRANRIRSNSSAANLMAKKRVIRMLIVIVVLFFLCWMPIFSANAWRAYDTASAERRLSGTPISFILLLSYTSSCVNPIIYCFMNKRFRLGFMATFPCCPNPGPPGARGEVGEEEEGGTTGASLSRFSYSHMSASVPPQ

[4] = target: T4, Type-1 angiotensin II receptor (Homo sapiens, UniProt P30556)
T4 sequence (P30556 whole entry): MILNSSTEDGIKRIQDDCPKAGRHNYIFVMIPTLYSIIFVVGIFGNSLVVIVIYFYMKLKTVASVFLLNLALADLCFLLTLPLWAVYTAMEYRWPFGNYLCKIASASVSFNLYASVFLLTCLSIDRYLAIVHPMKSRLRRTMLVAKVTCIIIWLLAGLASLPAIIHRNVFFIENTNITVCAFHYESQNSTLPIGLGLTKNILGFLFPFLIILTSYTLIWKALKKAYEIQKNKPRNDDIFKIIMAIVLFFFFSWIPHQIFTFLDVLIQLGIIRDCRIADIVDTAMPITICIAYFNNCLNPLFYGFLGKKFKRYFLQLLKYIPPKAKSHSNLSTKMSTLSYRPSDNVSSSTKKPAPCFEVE

[5] = target: T5, Alpha-2B adrenergic receptor (Homo sapiens, UniProt P18089)
T5 sequence (P18089 whole entry): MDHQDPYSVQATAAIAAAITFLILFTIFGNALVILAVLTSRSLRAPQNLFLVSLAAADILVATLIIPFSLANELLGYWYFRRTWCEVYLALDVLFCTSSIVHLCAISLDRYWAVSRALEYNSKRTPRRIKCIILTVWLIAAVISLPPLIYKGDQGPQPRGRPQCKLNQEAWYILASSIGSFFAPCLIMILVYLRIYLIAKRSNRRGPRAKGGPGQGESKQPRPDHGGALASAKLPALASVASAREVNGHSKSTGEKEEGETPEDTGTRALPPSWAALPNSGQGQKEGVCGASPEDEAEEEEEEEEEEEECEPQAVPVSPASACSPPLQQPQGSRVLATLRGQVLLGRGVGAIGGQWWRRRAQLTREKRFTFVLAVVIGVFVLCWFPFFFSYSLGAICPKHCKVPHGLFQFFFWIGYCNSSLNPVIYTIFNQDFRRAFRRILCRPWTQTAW

Adenosine receptor A3 = target: T6, Adenosine receptor A3 (Homo sapiens, UniProt P0DMS8)
T6 sequence (P0DMS8 whole entry): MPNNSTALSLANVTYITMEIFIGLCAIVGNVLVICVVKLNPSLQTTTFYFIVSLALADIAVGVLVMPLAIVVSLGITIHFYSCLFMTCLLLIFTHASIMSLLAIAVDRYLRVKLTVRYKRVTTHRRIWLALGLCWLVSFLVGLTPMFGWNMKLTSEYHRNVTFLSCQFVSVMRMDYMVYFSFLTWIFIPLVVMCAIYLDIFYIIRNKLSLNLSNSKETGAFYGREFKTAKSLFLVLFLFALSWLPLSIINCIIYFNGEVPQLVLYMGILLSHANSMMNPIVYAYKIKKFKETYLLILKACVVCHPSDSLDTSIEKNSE

[6] = target: T7, Neuropeptide Y receptor type 1 (Homo sapiens, UniProt P25929)
T7 sequence (P25929 whole entry): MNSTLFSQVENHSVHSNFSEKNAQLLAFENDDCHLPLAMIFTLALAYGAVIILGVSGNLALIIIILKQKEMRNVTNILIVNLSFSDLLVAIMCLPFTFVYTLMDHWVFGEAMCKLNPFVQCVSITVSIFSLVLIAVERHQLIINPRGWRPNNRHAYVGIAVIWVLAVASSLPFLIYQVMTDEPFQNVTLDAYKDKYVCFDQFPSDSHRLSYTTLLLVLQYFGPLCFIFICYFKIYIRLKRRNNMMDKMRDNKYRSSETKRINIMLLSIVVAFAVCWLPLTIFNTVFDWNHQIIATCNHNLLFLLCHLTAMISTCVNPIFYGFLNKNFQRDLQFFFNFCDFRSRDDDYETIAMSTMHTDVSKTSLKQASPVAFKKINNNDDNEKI
Note: assay procedure not described here.

Chain of Adenosine receptor A2a (P29274 whole entry): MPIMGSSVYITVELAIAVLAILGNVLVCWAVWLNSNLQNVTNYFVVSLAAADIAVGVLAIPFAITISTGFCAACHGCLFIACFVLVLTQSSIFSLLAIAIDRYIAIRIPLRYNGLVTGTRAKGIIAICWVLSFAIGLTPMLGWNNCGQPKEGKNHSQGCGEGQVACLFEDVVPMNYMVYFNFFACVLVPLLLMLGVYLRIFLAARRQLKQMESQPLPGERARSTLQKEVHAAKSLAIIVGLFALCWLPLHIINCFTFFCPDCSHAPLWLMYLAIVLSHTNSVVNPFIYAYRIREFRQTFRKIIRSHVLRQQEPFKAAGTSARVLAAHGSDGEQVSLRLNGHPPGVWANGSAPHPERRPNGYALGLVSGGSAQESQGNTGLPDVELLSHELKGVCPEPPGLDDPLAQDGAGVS
Chain of Gamma-aminobutyric acid receptor subunit alpha-1 (P62813 whole entry): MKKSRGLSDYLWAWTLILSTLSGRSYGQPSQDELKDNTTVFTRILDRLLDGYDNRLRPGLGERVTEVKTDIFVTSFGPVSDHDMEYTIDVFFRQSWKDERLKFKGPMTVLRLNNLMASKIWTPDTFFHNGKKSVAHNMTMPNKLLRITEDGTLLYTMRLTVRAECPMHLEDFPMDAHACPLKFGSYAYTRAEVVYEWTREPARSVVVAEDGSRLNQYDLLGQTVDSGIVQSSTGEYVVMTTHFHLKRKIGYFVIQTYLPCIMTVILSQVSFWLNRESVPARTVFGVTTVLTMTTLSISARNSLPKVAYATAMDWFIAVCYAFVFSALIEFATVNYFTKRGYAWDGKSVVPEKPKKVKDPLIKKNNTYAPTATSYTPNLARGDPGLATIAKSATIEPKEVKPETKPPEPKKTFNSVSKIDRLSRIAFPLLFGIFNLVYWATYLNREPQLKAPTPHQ

SMILES | AC50 (Adenosine receptor A2a) [µM] | AC50 [1] [µM] | AC50 [2] [µM] | AC50 (Adenosine receptor A1) [µM] | AC50 [3] [µM] | AC50 [4] [µM] | AC50 [5] [µM] | AC50 (Adenosine receptor A3) [µM] | AC50 [6] [µM]
Cc1ccc(S(=O)(=O)NC(=O)N[C@H]2[C@H]3CC[C@@](C)([C@H]2O)C3(C)C)cc1 [GLIBORNURIDE] | > 30 | > 30 | > 30 | > 30 | > 30 | > 30 | > 30 | > 30 | > 30
COc1ccc2c3c1O[C@H]1C(=O)CC[C@H]4[C@@H](C2)N(C)CC[C@]314 [HYDROCODONE] | > 30 | > 10 | > 10 | > 30 | > 30 | > 30 | > 10 | > 30 | > 30
CCC(NC(C)C)C(O)c1ccc(O)c(O)c1 (configuration not stated) [ISOETHARINE] | > 30 | > 30 | > 30 | > 30 | > 30 | > 30 | > 30 | > 30 | > 30
O=C(C[S+]([O-])Cc1ccco1)NC/C=C\COc1cc(CN2CCCCC2)ccn1 (configuration not stated) [LAFUTIDINE] | > 10 | > 10 | 2.6 | > 10 | > 10 | > 10 | > 10 | > 10 | > 10
CCC(=O)O[C@H](CC(=O)O)C[N+](C)(C)C [LEVOCARNITINE PROPIONATE] | > 30 | > 30 | > 30 | > 30 | > 30 | > 30 | > 30 | > 30 | > 30
CCC1(CC)C(=O)NC(=O)N(C)C1=O [METHARBITAL] | > 10 | > 10 | > 10 | > 10 | > 10 | > 10 | > 10 | > 10 | > 10
COC(=O)c1ccc2c(c1)NC(=O)/C2=C(\Nc1ccc(N(C)C(=O)CN2CCN(C)CC2)cc1)c1ccccc1 [NINTEDANIB] | 21 | > 30 | > 30 | > 30 | > 30 | > 30 | 11 | > 30 | > 30
CCN(CC)Cc1nccn1-c1ccc([N+](=O)[O-])cc1C(=O)c1ccccc1Cl [NIZOFENONE] | > 30 | > 30 | > 30 | > 30 | > 30 | > 30 | > 10 | > 30 | > 30
